# Test results as given in PubChem BioAssay AID1845204 (Molecular Pharmacology Branch, DTP, NCI, 2023).
# “And” between values parts separate entries of the source, which are not always exact repeats. Equal entries are not always repeated.
# Test system: HSSY-II tumor spheroid viability
# Assay: Anticancer human tumor HSSY-II cell line growth inhibition;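 also: spheroids exposed to compounds for seven days before reading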;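 as to viability, T/C: percent of DMSO vehicle control viability so 100% = untreated level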
# Conditions: spheroids with HUVEC and MSC; for viability, T/C: stronger effect = lower value
# In short: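 Complex tumor spheroids combined malignant cells with endothelial cells and mesenchymal stem cells. DNA-damaging drugs and DNA repair inhibitors were tested alone and in combination, at half-log dilutions down from clinical Cmax (top 10 microM if Cmax unknown), 0.25% DMSO final.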
smiles,measurement,setting,value
Cc1sc2c(c1C)C(c1ccc(Cl)cc1)=NC(CC(=O)Nc1ccc(O)cc1)c1nnc(C)n1-2 (centres undefined) + Cn1nnc2c(C(N)=O)ncn2c1=O,IC50,"curve of first compound, second compound 1 µM",164 nM
same,IC50,"curve of first compound, second compound 3.16 µM",178 nM
same,IC50,"curve of first compound, second compound 10 µM",158 nM
same,IC50,"curve of first compound, second compound 31.6 µM",194 nM
same,IC50,"curve of first compound, second compound 100 µM",169 nM
same,"viability, T/C","second compound 1 µM, first compound 0.00949 µM",98.5%
same,"viability, T/C","second compound 1 µM, first compound 0.03 µM",85.1%
same,"viability, T/C","second compound 1 µM, first compound 0.0949 µM",64.7%
same,"viability, T/C","second compound 1 µM, first compound 0.3 µM",34.3%
same,"viability, T/C","second compound 1 µM, first compound 0.949 µM",19.3%
same,"viability, T/C","second compound 1 µM, first compound 3 µM",12.8%
same,"viability, T/C","second compound 3.16 µM, first compound 0.00949 µM",101%
same,"viability, T/C","second compound 3.16 µM, first compound 0.03 µM",90.6%
same,"viability, T/C","second compound 3.16 µM, first compound 0.0949 µM",65.9%
same,"viability, T/C","second compound 3.16 µM, first compound 0.3 µM",35.9%
same,"viability, T/C","second compound 3.16 µM, first compound 0.949 µM",21.6%
same,"viability, T/C","second compound 3.16 µM, first compound 3 µM",12%
same,"viability, T/C","second compound 10 µM, first compound 0.00949 µM",101%
same,"viability, T/C","second compound 10 µM, first compound 0.03 µM",92.9%
same,"viability, T/C","second compound 10 µM, first compound 0.0949 µM",62.3%
same,"viability, T/C","second compound 10 µM, first compound 0.3 µM",32.6%
same,"viability, T/C","second compound 10 µM, first compound 0.949 µM",20.1%
same,"viability, T/C","second compound 10 µM, first compound 3 µM",11.2%
same,"viability, T/C","second compound 31.6 µM, first compound 0.00949 µM",105%
same,"viability, T/C","second compound 31.6 µM, first compound 0.03 µM",98%
same,"viability, T/C","second compound 31.6 µM, first compound 0.0949 µM",69.3%
same,"viability, T/C","second compound 31.6 µM, first compound 0.3 µM",37.3%
same,"viability, T/C","second compound 31.6 µM, first compound 0.949 µM",18.7%
same,"viability, T/C","second compound 31.6 µM, first compound 3 µM",8.46%
same,"viability, T/C","second compound 100 µM, first compound 0.00949 µM",98.1%
same,"viability, T/C","second compound 100 µM, first compound 0.03 µM",89.5%
same,"viability, T/C","second compound 100 µM, first compound 0.0949 µM",68.7%
same,"viability, T/C","second compound 100 µM, first compound 0.3 µM",31.2%
same,"viability, T/C","second compound 100 µM, first compound 0.949 µM",13.2%
same,"viability, T/C","second compound 100 µM, first compound 3 µM",5.25%
Cc1sc2c(c1C)C(c1ccc(Cl)cc1)=NC(CC(=O)Nc1ccc(O)cc1)c1nnc(C)n1-2 (centres undefined),"viability, T/C",compound 0.00949 µM,103% and 96.2% and 86.5%
same,"viability, T/C",compound 0.03 µM,91.5% and 82% and 79.4%
same,"viability, T/C",compound 0.0949 µM,71.5% and 60.6% and 61.9%
same,"viability, T/C",compound 0.3 µM,30.2% and 39.3% and 30.7%
same,"viability, T/C",compound 0.949 µM,18.2% and 16.5% and 16.8%
same,"viability, T/C",compound 3 µM,11.9% and 11.7% and 9.97%
same,IC50,curve of compound,173 nM and 161 nM and 146 nM
COc1cc(C)[nH]c(=O)c1CN1CCc2c(Cl)cc(C(OC)C3COC3)c(Cl)c2C1=O (centres undefined),"viability, T/C",compound 0.0316 µM,79.4% and 99.8% and 97.9%
same,"viability, T/C",compound 0.1 µM,115% and 84.8% and 86.5%
same,"viability, T/C",compound 0.316 µM,99.7% and 76.2% and 78.9%
same,"viability, T/C",compound 1 µM,93.8% and 63.5% and 68.3%
same,"viability, T/C",compound 3.16 µM,94.8% and 60.8% and 62.7%
same,"viability, T/C",compound 10 µM,91.7% and 62.6% and 64.4%
same,IC50,curve of compound,> 10000 nM
COc1cc(C)[nH]c(=O)c1CN1CCc2c(Cl)cc(C(OC)C3COC3)c(Cl)c2C1=O (centres undefined) + COc1cc2c(cc1O)CCNC21CSC2c3c(OC(C)=O)c(C)c4c(c3C(COC1=O)N1C(O)C3Cc5cc(C)c(OC)c(O)c5C(C21)N3C)OCO4,IC50,"curve of first compound, second compound 30 pM",> 10000 nM
same,IC50,"curve of first compound, second compound 94.9 pM",> 10000 nM
same,IC50,"curve of first compound, second compound 0.0003 µM",< 31.6 nM
same,IC50,"curve of first compound, second compound 0.000949 µM",< 31.6 nM
same,IC50,"curve of first compound, second compound 0.003 µM",< 31.6 nM
same,"viability, T/C","second compound 30 pM, first compound 0.0316 µM",132%
same,"viability, T/C","second compound 30 pM, first compound 0.1 µM",117%
same,"viability, T/C","second compound 30 pM, first compound 0.316 µM",108%
same,"viability, T/C","second compound 30 pM, first compound 1 µM",92.5%
same,"viability, T/C","second compound 30 pM, first compound 3.16 µM",86%
same,"viability, T/C","second compound 30 pM, first compound 10 µM",90.1%
same,"viability, T/C","second compound 94.9 pM, first compound 0.0316 µM",121%
same,"viability, T/C","second compound 94.9 pM, first compound 0.1 µM",99.9%
same,"viability, T/C","second compound 94.9 pM, first compound 0.316 µM",97.8%
same,"viability, T/C","second compound 94.9 pM, first compound 1 µM",89.7%
same,"viability, T/C","second compound 94.9 pM, first compound 3.16 µM",81.4%
same,"viability, T/C","second compound 94.9 pM, first compound 10 µM",70.8%
same,"viability, T/C","second compound 0.0003 µM, first compound 0.0316 µM",20.1%
same,"viability, T/C","second compound 0.0003 µM, first compound 0.1 µM",15.3%
same,"viability, T/C","second compound 0.0003 µM, first compound 0.316 µM",19.4%
same,"viability, T/C","second compound 0.0003 µM, first compound 1 µM",23.8%
same,"viability, T/C","second compound 0.0003 µM, first compound 3.16 µM",21.3%
same,"viability, T/C","second compound 0.0003 µM, first compound 10 µM",19.3%
same,"viability, T/C","second compound 0.000949 µM, first compound 0.0316 µM",3.35%
same,"viability, T/C","second compound 0.000949 µM, first compound 0.1 µM",3.82%
same,"viability, T/C","second compound 0.000949 µM, first compound 0.316 µM",3.22%
same,"viability, T/C","second compound 0.000949 µM, first compound 1 µM",4.24%
same,"viability, T/C","second compound 0.000949 µM, first compound 3.16 µM",4.87%
same,"viability, T/C","second compound 0.000949 µM, first compound 10 µM",4.39%
same,"viability, T/C","second compound 0.003 µM, first compound 0.0316 µM",0.33%
same,"viability, T/C","second compound 0.003 µM, first compound 0.1 µM",0.35%
same,"viability, T/C","second compound 0.003 µM, first compound 0.316 µM",0.32%
same,"viability, T/C","second compound 0.003 µM, first compound 1 µM",0.3%
same,"viability, T/C","second compound 0.003 µM, first compound 3.16 µM",0.32%
same,"viability, T/C","second compound 0.003 µM, first compound 10 µM",0.52%
